# According to ChEMBL document CHEMBL1201862, “PubChem BioAssay data set” (2004):
#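 How tested: cells in 96-well plates exposed to compound for 48 hours at five concentrations. Abbreviation: GI50, concentration required for 50% inhibition of growth.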 Activity calls are given as the source filed them. Cut-off read from the data, not from the text of the source: active = GI50 up to about 1.1 µM and inactive = higher.
# Experiments:
# Experiment in all cases: growth of human tumour cells (NCI), 48 h
# [1] = test system: SF-295
# [2] = test system: SK-OV-3
# [3] = test system: K562
# [4] = test system: MOLT-4
# [5] = test system: IGROV-1
# [6] = test system: SNB-19
# [7] = test system: NCI-H23
# [8] = test system: OVCAR-8
# [9] = test system: HCC 2998
# [10] = test system: CAKI-1
# [11] = test system: OVCAR-5
# [12] = test system: COLO 205
# [13] = test system: DMS-114
# [14] = test system: SW-620
# [15] = test system: U-251
# [16] = test system: MDA-MB-435
# [17] = test system: MCF7
# [18] = test system: Hs-578T
# [19] = test system: MDA-N
# [20] = test system: BT-549
Structure (SMILES),GI50 [1],GI50 [2],GI50 [3],GI50 [4],GI50 [5],GI50 [6],GI50 [7],GI50 [8],GI50 [9],GI50 [10],GI50 [11],GI50 [12],GI50 [13],GI50 [14],GI50 [15],GI50 [16],GI50 [17],GI50 [18],GI50 [19],GI50 [20]
CNc1ccc([N+](=O)[O-])c2c(NCCCN(C)C)ccnc12,> 100 µM (inactive),> 100 µM (inactive),> 100 µM (inactive),> 100 µM (inactive),> 100 µM (inactive),> 100 µM (inactive),99.1 µM (inactive),> 100 µM (inactive),> 100 µM (inactive),> 100 µM (inactive),> 100 µM (inactive),> 100 µM (inactive),> 100 µM (inactive),> 100 µM (inactive),> 100 µM (inactive),–,–,–,–,–
CCCCOCN/C(N)=N/C#N,> 100 µM (inactive),> 100 µM (inactive),73.6 µM (inactive),> 100 µM (inactive),> 100 µM (inactive),> 100 µM (inactive),> 100 µM (inactive),> 100 µM (inactive),> 100 µM (inactive),> 100 µM (inactive),> 100 µM (inactive),38.3 µM (inactive),> 100 µM (inactive),18.2 µM (inactive),> 100 µM (inactive),–,–,–,–,–
Cc1nn(C)c(=O)c2nn(-c3ccccc3)c(C)c12,> 100 µM (inactive),> 100 µM (inactive),> 100 µM (inactive),> 100 µM (inactive),> 100 µM (inactive),> 100 µM (inactive),> 100 µM (inactive),> 100 µM (inactive),> 100 µM (inactive),> 100 µM (inactive),> 100 µM (inactive),> 100 µM (inactive),> 100 µM (inactive),> 100 µM (inactive),> 100 µM (inactive),–,–,–,–,–
O=C(Cc1nc2ccccc2s1)Nc1cccc(C(F)(F)F)c1,16.2 µM (inactive),29.5 µM (inactive),9.16 µM (inactive),6.89 µM (inactive),13 µM (inactive),16.9 µM (inactive),14.8 µM (inactive),18.1 µM (inactive),15.6 µM (inactive),16.7 µM (inactive),18.5 µM (inactive),17 µM (inactive),15.6 µM (inactive),19.2 µM (inactive),–,–,–,–,–,–
O=C(CC(=O)Nc1ccccc1O)Nc1ccccc1O,39 µM (inactive),> 100 µM (inactive),6.79 µM (inactive),5.62 µM (inactive),37.4 µM (inactive),> 100 µM (inactive),22.2 µM (inactive),14.2 µM (inactive),24.7 µM (inactive),68.1 µM (inactive),59.4 µM (inactive),18.5 µM (inactive),1.75 µM (inactive),4.6 µM (inactive),23.9 µM (inactive),–,–,–,–,–
COc1cc2c(c(OC)c1OC)-c1ccc(OC)c(=O)cc1[C@@H](NC(=O)c1ccccc1)CC2,0.0136 µM (active),0.0646 µM (active),< 0.0114 µM (active),0.0562 µM (active),0.0146 µM (active),–,0.0128 µM (active),–,0.0162 µM (active),0.0206 µM (active),1.07 µM (active),< 0.01 µM (active),< 0.01 µM (active),0.0119 µM (active),0.0147 µM (active),< 0.01 µM (active),< 0.0146 µM (active),< 0.0126 µM (active),< 0.01 µM (active),–
O=[N+]([O-])C1Cc2ccccc2OC1c1ccccc1 (configuration not stated),40.5 µM (inactive),96.6 µM (inactive),26.8 µM (inactive),23.4 µM (inactive),64.4 µM (inactive),41.9 µM (inactive),92.9 µM (inactive),89.7 µM (inactive),> 100 µM (inactive),24.1 µM (inactive),> 100 µM (inactive),69 µM (inactive),> 10 µM (inactive),> 100 µM (inactive),40.6 µM (inactive),–,–,–,–,–
FC(F)(F)P1C2C=CC(CC2)C1(F)F (configuration not stated),> 100 µM (inactive),> 100 µM (inactive),> 100 µM (inactive),> 100 µM (inactive),> 100 µM (inactive),> 100 µM (inactive),> 100 µM (inactive),> 100 µM (inactive),> 100 µM (inactive),> 100 µM (inactive),> 100 µM (inactive),> 100 µM (inactive),> 100 µM (inactive),63.2 µM (inactive),> 100 µM (inactive),–,–,–,–,–
CC[n+]1c(/C=C/c2ccc(N(CCCl)CCCl)cc2)ccc2cc(NC(=O)/C=C/c3ccccc3)ccc21,0.45 µM (active),0.578 µM (active),0.134 µM (active),0.286 µM (active),0.31 µM (active),0.393 µM (active),0.482 µM (active),0.406 µM (active),0.39 µM (active),2.13 µM (inactive),0.748 µM (active),0.104 µM (active),0.52 µM (active),0.208 µM (active),0.132 µM (active),0.288 µM (active),0.139 µM (active),0.0912 µM (active),0.6 µM (active),0.628 µM (active)
CC(=O)c1ccc(NC(=O)/C(Cc2ccccn2)=N/NC(=O)C[N+](C)(C)C)cc1,> 100 µM (inactive),> 100 µM (inactive),> 100 µM (inactive),> 100 µM (inactive),> 100 µM (inactive),> 100 µM (inactive),> 100 µM (inactive),> 100 µM (inactive),> 100 µM (inactive),> 100 µM (inactive),> 100 µM (inactive),> 100 µM (inactive),> 100 µM (inactive),> 100 µM (inactive),> 100 µM (inactive),–,–,–,–,–
CCCCCCCCCC1CC(=O)OC2=C1C(=O)CCC2 (configuration not stated),> 100 µM (inactive),> 100 µM (inactive),> 100 µM (inactive),> 100 µM (inactive),> 100 µM (inactive),> 100 µM (inactive),> 100 µM (inactive),> 100 µM (inactive),> 100 µM (inactive),> 100 µM (inactive),> 100 µM (inactive),> 100 µM (inactive),> 100 µM (inactive),> 100 µM (inactive),> 100 µM (inactive),–,–,–,–,–
COC(=O)C(C(=O)C(=O)Nc1ccc([N+](=O)[O-])cc1)c1nc2cc(C)c(C)cc2nc1O (configuration not stated),> 100 µM (inactive),> 100 µM (inactive),> 100 µM (inactive),> 100 µM (inactive),> 100 µM (inactive),> 100 µM (inactive),> 100 µM (inactive),–,81.3 µM (inactive),> 100 µM (inactive),> 100 µM (inactive),> 100 µM (inactive),> 100 µM (inactive),> 100 µM (inactive),> 100 µM (inactive),–,–,–,–,–
Clc1ccc(Cc2nc3ccccc3s2)c(Cl)c1,16.8 µM (inactive),28.2 µM (inactive),14.8 µM (inactive),14.3 µM (inactive),14.8 µM (inactive),24.3 µM (inactive),> 10 µM (inactive),19.8 µM (inactive),18.6 µM (inactive),17.4 µM (inactive),19.3 µM (inactive),17 µM (inactive),17 µM (inactive),21.8 µM (inactive),–,–,–,–,–,–
O=C1C(Br)=C(c2ccccc2)C(c2ccccc2)=C1c1ccccc1,10.9 µM (inactive),15.9 µM (inactive),1.61 µM (inactive),0.601 µM (active),4.28 µM (inactive),11.4 µM (inactive),3.64 µM (inactive),2.04 µM (inactive),6.05 µM (inactive),2.44 µM (inactive),12 µM (inactive),1.87 µM (inactive),1.89 µM (inactive),1.77 µM (inactive),3.36 µM (inactive),3.82 µM (inactive),2.4 µM (inactive),13.7 µM (inactive),2.98 µM (inactive),3.6 µM (inactive)
COC(=O)C1=C(c2ccc3c(c2)OCO3)OC(c2cc(OC)c(OC)c(OC)c2)C1 (configuration not stated),1.5 µM (inactive),2.28 µM (inactive),0.883 µM (active),6.44 µM (inactive),2.75 µM (inactive),1.59 µM (inactive),3.21 µM (inactive),4.17 µM (inactive),5.77 µM (inactive),2.12 µM (inactive),> 100 µM (inactive),1.2 µM (inactive),2.49 µM (inactive),0.557 µM (active),2.34 µM (inactive),–,–,–,–,–
O=[N+]([O-])c1ccc(C2=Nc3ccccc3[S+]([O-])C(c3ccccc3)C2)cc1 (configuration not stated),31.3 µM (inactive),31.9 µM (inactive),10.9 µM (inactive),16.6 µM (inactive),15.3 µM (inactive),20 µM (inactive),18.2 µM (inactive),32.4 µM (inactive),18.6 µM (inactive),18.8 µM (inactive),25.8 µM (inactive),19.7 µM (inactive),19.1 µM (inactive),23.1 µM (inactive),–,–,–,–,–,–
O=C(c1ccccc1)c1ccc2cccc(O)c2n1,18.7 µM (inactive),–,9.23 µM (inactive),5.27 µM (inactive),93.1 µM (inactive),31.1 µM (inactive),22.6 µM (inactive),23.6 µM (inactive),40.1 µM (inactive),76.4 µM (inactive),60.8 µM (inactive),37.5 µM (inactive),10.9 µM (inactive),13.5 µM (inactive),18.5 µM (inactive),–,–,–,–,–
